The subject of the assay is HeLa cells. The assay is described as follows: Functional protein delivery (MTT with PN/enzyme complexes). It counts as cell-based. The settings on record: no carrier. Here is the method: Final concentrations of 40, 20, 10, and 5 μM were added into the complete media by dilution of the polymer stock solutions. After addition of the samples, cells were incubated for 18 h prior to treatment with 10 μL of methylthiazole tetrazolium (MTT) (5 mg/mL in PBS) and incubated for 4 h at 37° C. After incubation, 200 μL of medium was gently removed and 100 μL of biological grade DMSO was added to solubilize the purple formazan crystals. Absorbance was measured by microwell plate reader. Cell viability was determined as a function of absorbance of each sample relative to control wells. All measurements represent the average of three independent measurements+/−standard deviation.
MTT assay was performed with PN/enzyme complexes are described previously. In short, serial dilutions of saporin or RNase were prepared and complexes with various PNs. For serum-containing media, complexes were added to HeLa cells and incubated overnight prior to MTT treatment. For serum-free experiments, complexes were added in DMEM for 4 h and the media was replaced with complete media overnight prior to MTT treatment.

In the case of Saporin, the “toxicity of free enzyme on HeLa cells” value was “no toxicity”.

B1: RNase A: 13.7 kDa enzyme capable of degrading RNA chains (protein, UniProt P61823 27-150, looked up)
Ribonuclease pancreatic: KETAAAKFERQHMDSSTSAASSSNYCNQMMKSRNLTKDRCKPVNTFVHESLADVQAVCSQKNVACKNGQTNCYQSYSTMSITDCRETGSSKYPNCAYKTTQANKHIIVACEGNPYVPVHFDASV
Turning to B1, the “toxicity of free enzyme on HeLa cells” value is “no toxicity”.
